How the values were obtained:
[1] = target: T1, OGA (Homo sapiens, UniProt O60502); assay: OGA cellular assay (ICC detection of O-GlcNAcylated proteins in HEK293 cells inducible for P301L mutant human Tau); format: cell-based; settings: for Emax: HEK293, HEK293 cells inducible for P301L mutant human Tau; for Emax / Cellular Emax (%): maximum defined by Thiamet G at 200 uM; for EC50 / Cellular Emax (%): HEK293 cells inducible for P301L mutant human Tau; for EC50: 6 hours incubation, ICC O-GlcNAcylation, read-out: Cellular hOGA, pEC50 (converted)
T1 construct: endogenous in cells; host or cells: HEK293 cells inducible for P301L mutant human Tau (isoform 2N4R)
T1 sequence (O60502 1-916): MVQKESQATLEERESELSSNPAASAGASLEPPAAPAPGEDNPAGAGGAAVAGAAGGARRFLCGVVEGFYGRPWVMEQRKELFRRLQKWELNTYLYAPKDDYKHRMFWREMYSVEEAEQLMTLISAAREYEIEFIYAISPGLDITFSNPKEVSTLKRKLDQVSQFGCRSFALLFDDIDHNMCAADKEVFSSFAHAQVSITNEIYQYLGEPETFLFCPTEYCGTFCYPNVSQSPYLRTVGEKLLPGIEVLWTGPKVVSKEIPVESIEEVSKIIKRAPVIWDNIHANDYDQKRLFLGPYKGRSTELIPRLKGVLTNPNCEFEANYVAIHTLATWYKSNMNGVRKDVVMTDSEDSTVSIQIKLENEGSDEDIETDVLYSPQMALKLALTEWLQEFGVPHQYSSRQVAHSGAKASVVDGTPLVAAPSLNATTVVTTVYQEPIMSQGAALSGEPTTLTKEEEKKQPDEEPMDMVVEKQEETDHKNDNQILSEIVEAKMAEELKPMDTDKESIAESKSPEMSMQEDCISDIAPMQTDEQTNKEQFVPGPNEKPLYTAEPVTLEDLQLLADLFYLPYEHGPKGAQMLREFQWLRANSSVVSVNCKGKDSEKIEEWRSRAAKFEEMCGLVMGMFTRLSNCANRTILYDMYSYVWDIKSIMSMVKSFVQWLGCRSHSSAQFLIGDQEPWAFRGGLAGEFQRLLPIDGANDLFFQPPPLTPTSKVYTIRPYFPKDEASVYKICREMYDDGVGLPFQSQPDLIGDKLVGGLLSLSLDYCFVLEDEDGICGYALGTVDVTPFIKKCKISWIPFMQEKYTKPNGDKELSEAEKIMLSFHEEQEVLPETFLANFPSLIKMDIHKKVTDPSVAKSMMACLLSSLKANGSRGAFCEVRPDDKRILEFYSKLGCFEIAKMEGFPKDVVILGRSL
Procedure: HEK293 cells inducible for P301L mutant human Tau (isoform 2N4R) were established at Janssen. Thiamet-G was used for both plate validation (high control) and as reference compound (reference EC50 assay validation). OGA inhibition is evaluated through the immunocytochemical (ICC) detection of O-GlcNAcylated proteins by the use of a monoclonal antibody (CTD110.6; Cell Signaling, #9875) detecting O-GlcNAcylated residues as previously described (Dorfmueller et al. 2010 Chemistry & biology, 17:1250). Inhibition of OGA will result in an increase of O-GlcNAcylated protein levels resulting in an increased signal in the experiment. Cell nuclei are stained with Hoechst to give a cell culture quality control and a rough estimate of immediate compounds toxicity, if any. ICC pictures are imaged with a Perkin Elmer Opera Phenix plate microscope and quantified with the provided software Perkin Elmer Harmony 4.1.
Cells were propagated in DMEM high Glucose (Sigma, #D5796) following standard procedures. 2 days before the cell assay cells are split, counted and seeded in Poly-D-Lysine (PDL) coated 96-wells (Greiner, #655946) plate at a cell density of 12,000 cells per cm^2 (4,000 cells per well) in 100 μl of Assay Medium (Low Glucose medium is used to reduce basal levels of GlcNAcylation) (Park et al. 2014 The Journal of biological chemistry 289:13519). At the day of compound test medium from assay plates was removed and replenished with 90 μl of fresh Assay Medium. 10 μl of compounds at a 10 fold final concentration were added to the wells. Plates were centrifuged shortly before incubation in the cell incubator for 6 hours. DMSO concentration was set to 0.2%. Medium is discarded by applying vacuum. For staining of cells medium was removed and cells washed once with 100 μl D-PBS (Sigma, #D8537). From next step onwards unless other stated assay volume was always 50 μl and incubation was performed without agitation and at room temperature. Cells were fixed in 50 μl of a 4% paraformaldehyde (PFA, Alpha aesar, #043368) PBS solution for 15 minutes at room temperature. […] Before analysis samples were washed 2 times manually for 5 minutes in ICC base buffer.
Imaging is performed using Perkin Elmer Phenix Opera using a water 20× objective and recording 9 fields per well. Intensity readout at 488 nm is used as a measure of O-GlcNAcylation level of total proteins in wells. To assess potential toxicity of compounds nuclei were counted using the Hoechst staining. IC50-values are calculated using parametric non-linear regression model fitting. As a maximum inhibition Thiamet G at a 200 uM concentration is present on each plate. In addition, a concentration response of Thiamet G is calculated on each plate.

[2] = target: T2, recombinant human Meningioma Expressed Antigen 5 (MGEA5), also referred to as O-GlcNAcase (OGA) (Homo sapiens, UniProt O60502); assay: OGA biochemical assay (inhibition of FM-GlcNAc hydrolysis, fluorescence); settings: FM-GlcNAc substrate; for IC50: 6 h at room temperature, read-out: Enzymatic hOGA, pIC50 (converted); for Emax / Enzymatic Emax (%): maximal effect; for Emax: read-out: Enzymatic Emax (%)
T2 construct: Full length OGA enzyme was purchased at OriGene (cat #TP322411); purchased OriGene TP322411
T2 sequence (O60502 1-916): T1 sequence (O60502 1-916)
From the text: The assay is based on the inhibition of the hydrolysis of fluorescein mono-β-D-N-Acetyl-Glucosamine (FM-GlcNAc) (Mariappa et al. 2015, Biochem J 470:255) by the recombinant human Meningioma Expressed Antigen 5 (MGEA5), also referred to as O-GlcNAcase (OGA). The hydrolysis FM-GlcNAc (Marker Gene technologies, cat #M1485) results in the formation of β-D-N-glucosamineacetate and fluorescein. The fluorescence of the latter can be measured at excitation wavelength 485 nm and emission wavelength 538 nm. An increase in enzyme activity results in an increase in fluorescence signal. Full length OGA enzyme was purchased at OriGene (cat #TP322411). The enzyme was stored in 25 mM Tris.HCl, pH 7.3, 100 mM glycine, 10% glycerol at −20° C. Thiamet G and GlcNAcStatin were tested as reference compounds (Yuzwa et al. 2008 Nature Chemical Biology 4:483; Yuzwa et al. 2012 Nature Chemical Biology 8:393). The assay was performed in 200 mM Citrate/phosphate buffer supplemented with 0.005% Tween-20. 35.6 g Na2HPO4 2 H2O (Sigma, #C0759) were dissolved in 1 L water to obtain a 200 mM solution. 19.2 g citric acid (Merck, #1.06580) was dissolved in 1 L water to obtain a 100 mM solution. pH of the sodium phosphate solution was adjusted with the citric acid solution to 7.2. The buffer to stop the reaction consists of a 500 mM Carbonate buffer, pH 11.0. 734 mg FM-GlcNAc were dissolved in 5.48 mL DMSO to obtain a 250 mM solution and was stored at −20° C. OGA was used at a 2 nM concentration and FM-GlcNAc at a 100 uM final concentration. Dilutions were prepared in assay buffer.
50 nl of a compound dissolved in DMSO was dispensed on Black Proxiplate™ 384 Plus Assay plates (Perkin Elmer, #6008269) and 3 μl fl-OGA enzyme mix added subsequently. Plates were pre-incubated for 60 min at room temperature and then 2 μl FM-GlcNAc substrate mix added. […] Plates were briefly centrifuged for 1 min at 1000 rpm and incubate at room temperature for 6 h. To stop the reaction 5 μl STOP buffer were added and plates centrifuge again 1 min at 1000 rpm. Fluorescence was quantified in the Thermo Scientific Fluoroskan Ascent or the PerkinElmer EnVision with excitation wavelength 485 nm and emission wavelength 538 nm.
For analysis a best-fit curve is fitted by a minimum sum of squares method. From this an IC50 value and Hill coefficient was obtained. High control (no inhibitor) and low control (saturating concentrations of standard inhibitor) were used to define the minimum and maximum values.

Structure (SMILES)	Emax [1]	EC50 [1]	IC50 [2]	Emax [2]	Cellular Emax (%) [1]	Enzymatic Emax (%) [2]
Cc1cc(C[C@H]2CCN(C(C)c3cnc4c(c3)OCCN4)C2)cc(C)n1 (mixture of isomers) [Product 80]	71%	398 nM	39.8 nM	101%		
COc1cc(C[C@H]2CCN(C(C)c3ccc4c(n3)OCCC4)C2)cc(C)n1 (mixture of isomers) [Product 86]	50%	741 nM	158 nM	101%		
Cc1cc(CO[C@@H]2CCN(C(C)c3ccc4c(n3)OCCO4)C2)cc(C)n1 (mixture of isomers) [Product 115]	9%	> 1000 nM	631 nM	94%		
Cc1cc(C[C@@H]2CCN(C(C)c3cnc4c(c3)OCCN4)C2)cc(C)n1 (mixture of isomers) [Product 118]	49%	631 nM	31.6 nM	100%		
Cc1cc(OC[C@H]2CCN(C(C)c3nc4c(cc3F)OCCO4)C2)cc(C)n1 (mixture of isomers) [Product 119]	59%	631 nM	100 nM	100%		
Cc1cc(C[C@H]2CN(C(C)c3ccc4c(n3)OCCO4)C[C@@H]2C)cc(C)n1 (mixture of isomers) [Product 60]	44%	> 1000 nM	79.4 nM	99%		
Cc1cc(C[C@H]2CN(C(C)c3ccc4c(n3)OCCO4)C[C@@H]2C)cc(C)n1 (mixture of isomers) [Product 61]		794 nM	126 nM		56%	97%
Cc1cc(O[C@@H]2CCN(C(C)c3ccc4c(n3)OCCO4)C2)cc(C)n1 (mixture of isomers) [Product 73]	33%	> 1000 nM	79.4 nM	99%		
COc1cc(C[C@H]2CN(C(C)c3ccc4c(n3)OCCO4)C[C@@H]2C)cc(C)n1 (mixture of isomers) [Product 120]	36%	> 1000 nM	158 nM	100%		
Cc1cc(C[C@H]2CCN([C@@H](C)c3ccc4c(c3)OCC4)C2)cc(C)n1 (single isomer, unassigned) [Product 14]	74%	126 nM	50.1 nM	103%		
Cc1cc(O[C@@H]2CCN(C(C)c3nc4c(cc3F)CCO4)C2)cc(C)n1 (single isomer, unassigned) [Product 18]			158 nM	98%	42%	
Cc1cc(O[C@@H]2CCN(C(C)c3nc4c(cc3F)CCO4)C2)cc(C)n1 (single isomer, unassigned) [Product 19]		18.6 nM	1.58 nM		94%	97%

Now from value to compound:

Emax [1]	EC50 [1]	IC50 [2]	Emax [2]	Cellular Emax (%) [1]	Enzymatic Emax (%) [2]	Structure (SMILES)
85%	100 nM	7.94 nM	98%			Cc1cc(C[C@@H]2CCN(C(C)c3nc4c(cc3F)OCCO4)C2)cc(C)n1 (mixture of isomers) [Product 79]
89%	31.6 nM	5.01 nM	102%			COc1cc(C[C@H]2CCN(C(C)c3nc4c(cc3F)CCO4)C2)cc(C)n1 (mixture of isomers) [Product 83]
90%	126 nM	12.6 nM	101%			COc1cc(C[C@@H]2CCN(C(C)c3nc4c(cc3F)OCCO4)C2)cc(C)n1 (mixture of isomers) [Product 90]
20%	> 1000 nM	158 nM	97%			Cc1cc(C[C@@H]2CCN(C(C)c3cnc4c(c3)OCCO4)C2)cc(C)n1 (mixture of isomers) [Product 116]
60%	316 nM	15.8 nM	99%			Cc1cc(C[C@@H]2CCN(C(C)c3cc4c(cc3F)NCCO4)C2)cc(C)n1 (mixture of isomers) [Product 117]
81%	251 nM	10 nM	101%			COc1cc(C[C@H]2CCN([C@@H](C)c3cc4c(cc3F)NCCO4)C2)cc(C)n1 (racemic) [Product 82]
	> 1000 nM	1580 nM	88%	−5%		COc1cc(C[C@H]2CCN(C(C)c3cc4c(cc3F)OCCO4)C2)cc(C)n1 (single isomer, unassigned) [Product 10]
	200 nM	25.1 nM		83%	102%	COc1cc(C[C@H]2CCN(C(C)c3cc4c(cc3F)OCCO4)C2)cc(C)n1 (single isomer, unassigned) [Product 11]

— patent US20210277015A1, “OGA INHIBITOR COMPOUNDS” (Janssen Pharmaceutica NV, priority 2018, published 2021)
